Assay [1] concerns ERα interaction with IGF-1Rβ and Shc. In words: E2-independent non-genomic activation route via IGF-1Rβ, MCF-7. Format: cell-based, human. The conditions noted are these: 10 μM, 24 hours, cytoplasm fraction. As to the method: FIG. 15 is a diagram illustrating the effects of the ERAP1-peptide on E2-independent cell functions. […] MCF-7 cells were treated with the ERAP1-peptide in each concentration (1, 3, 5 and 10 μM) or 10 nM tamoxifen as a positive control for 24 hours. […] MCF-7 cells were stimulated with 10 μM ERAP1-peptide treatment only, 10 nM E2 treatment only, or 10 μM ERAP1-peptide treatment and immediately 10 nM E2 for 24 hours, and the cytoplasm fraction was isolated from each of the treated cells. Then, the cytoplasm fraction was immunoprecipitated with anti-ERα antibody. Furthermore, with respect to the obtained sample, Western blotting analysis was performed using the antibodies shown in the figure.
MCF-7 cells were subjected to a treatment of 10 μM ERAP1-peptide alone, stimulation with 10 nM E2 alone, and co-stimulation with the ERAP1 peptide and E2, respectively, and after 24 hours, the cytoplasm fraction was isolated from the cells of each treatment. The cytoplasm fraction was precleaned using normal IgG and rec-Protein G Sepharose 4B (Zymed, San Francisco, Calif., USA) at 4° C. for 3 hours, and centrifuged, and then the supernatant was incubated in the presence of anti-ERα antibody at 4° C. for 6 hours. Then, the supernatant was added with rec-Protein G Sepharose 4B and incubated at 4° C. for 1 hour whereby to precipitate an antigen-antibody complex. […]

The subject of assay [2] is HCC1395 cells. In words: Proliferation of ERα-positive/ERAP1-negative HCC1395 cells. Format: cell-based, human. The conditions noted are these: 10 nM E2 96 hours. Here is the method:
FIG. 21 is a diagram illustrating that […] was translocated into the nucleus by E2 stimulation in ERAP1-negative breast cancer cell lines, HCC1395 cells. […] Then, immediately, the cells were stimulated with 1 μM E2 for 24 hours. The cells were fractionated into cytoplasm and nuclear fractions by specific gravity centrifugation. Then, each fraction was subjected to immunoblotting analysis using an anti-PHB2 antibody. Lamin and Tubulin are markers for […]. […] HCC1395 cells were treated with 5 μM ERAP1-peptide. Then, immediately, the cells were stimulated with 1 μM E2 for 24 hours. Then, the nuclear fraction was immunoprecipitated with anti-ERα antibody. Furthermore, with respect to the obtained sample, the immunoprecipitate was subjected to immunoblotting analysis with the antibodies shown in the figure. […] Then, immediately the cells were stimulated with 10 nM E2 for 96 hours.
The proliferation assay of HCC1395 cells was evaluated using Cell-Counting Kit-8 (CCK-8, Dojindo, Kumamoto, Japan). First, HCC1395 cells were seeded in 2×10^4/well in RPMI culture medium containing 10% FBS and 1% antibiotic/antimycotic solution and not containing phenol red on a 48-well plate, and stood in a CO2 incubator. […] Then, 100 μl from each well was moved to a 96-well plate, and the absorbance at 450 nm was measured with a microplate reader.

For the molecule `CSCC[C@H](NC(=O)[C@H](CCC(N)=O)NC(=O)[C@H](CCCNC(=N)N)NC(=O)[C@H](CCCNC(=N)N)NC(=O)[C@H](CCCNC(=N)N)NC(=O)[C@H](CCCNC(=N)N)NC(=O)[C@H](CCCNC(=N)N)NC(=O)[C@H](CCCNC(=N)N)NC(=O)[C@H](CCCNC(=N)N)NC(=O)[C@H](CCCNC(=N)N)NC(=O)[C@H](CCCNC(=N)N)NC(=O)[C@H](CCCNC(=N)N)NC(=O)[C@@H](N)CCCNC(=N)N)C(=O)N[C@@H](CC(C)C)C(=O)N[C@@H](CO)C(=O)N[C@@H](CC(=O)O)C(=O)N[C@@H](CC(C)C)C(=O)N[C@H](C(=O)N[C@@H](CC(C)C)C(=O)N[C@@H](CCC(N)=O)C(=O)N[C@@H](CC(C)C)C(=O)N[C@@H](CCCNC(=N)N)C(=O)N[C@@H](CCC(N)=O)C(=O)N[C@@H](CCCNC(=N)N)C(=O)O)[C@@H](C)O` [ERAP1-peptide], the “interaction of IGF-1Rβ and Shc with ERα, absence of E2” value in assay [1] is “each interaction of IGF-1Rβ and Shc, and ERα was inhibited”. Further, the cell proliferation entry in assay [2] is on record as “not recognized”.

The values above are taken from patent publication US9725490B2, “ERAP1-derived peptide and use thereof” (TOKUSHIMA UNIVERSITY, priority 2011, dated 2017).
